Target: human GLP1R (Homo sapiens (Human), UniProt P43220)
Test: In vitro cAMP signal activation in human GLP1R stably-expressing cell line (hGLP1R-HEK293)
Type: cell-based
Conditions: cAMP concentration in hGLP1R-HEK293; 100% = 1 nM human GLP-1 (7-37)
Description: <Test Example 1> Measurement of In Vitro cAMP Signal Activation of a Compound in Human GLP1R
A human GLP1R stably-expressing cell line (hGLP1R-HEK293) was used in the experiment. The cells were cultured in a Dulbecco's modified Eagle's medium (DMEM) containing 10% fetal bovine serum (Sigma-Aldrich), 100 units/mL penicillin G and 100 μg/mL streptomycin sulfate (Gibco), and 500 μg/mL Geneticin (Gibco), under a moist atmosphere containing 5% CO2, at 37° C.
hGLP1R-HEK293 was seeded in 96 well plates at 2.0×10^4 cells per well and cultured over night. The medium for culturing the cells was changed to 50 μL of Medium A (DMEM, 20 mM HEPES, 0.05% BSA, 0.5 mM 3-isobutyl-1-methylxanthine) the next day, and the cells were incubated at 37° C. for 30 min. Then, 50 μL of Medium B (DMEM, 20 mM HEPES, 0.05% BSA, 0.5 mM 3-isobutyl-1-methylxanthine) containing GLP-1 or the compound was added, and the cells were incubated at 37° C. for an additional 30 min. Then, 100 μL of Assay lysis buffer (Applied Bioscience) was added, and the cells were incubated at 37° C. for 30 min. The cAMP concentration was quantified using cAMP HiRange kit (Cisbio Bioassays).
By setting the cAMP concentration when the human GLP-1 (7-37) was put into action at a concentration of 1 nM to 100%, the cAMP concentration of each well was converted to a reaction rate (%).

Chain of human GLP1R (P43220 24-463): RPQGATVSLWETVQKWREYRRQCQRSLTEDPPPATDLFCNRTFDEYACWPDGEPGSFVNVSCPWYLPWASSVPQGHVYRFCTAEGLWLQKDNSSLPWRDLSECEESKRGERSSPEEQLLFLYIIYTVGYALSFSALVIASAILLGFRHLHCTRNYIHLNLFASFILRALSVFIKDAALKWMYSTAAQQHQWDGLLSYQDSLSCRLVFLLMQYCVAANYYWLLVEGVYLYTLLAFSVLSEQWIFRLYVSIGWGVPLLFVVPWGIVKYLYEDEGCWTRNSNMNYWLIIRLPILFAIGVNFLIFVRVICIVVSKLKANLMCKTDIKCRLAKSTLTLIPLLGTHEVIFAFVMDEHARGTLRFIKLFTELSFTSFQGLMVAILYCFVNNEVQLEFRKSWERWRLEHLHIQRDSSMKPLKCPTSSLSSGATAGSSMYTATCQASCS

Cc1cc(-n2nc3c(c2-n2ccn(-c4ccc5c(cnn5C)c4)c2=O)[C@H](C)N(C(=O)c2cc4cc([C@H]5CCOC(C)(C)C5)ccc4n2[C@@]2(c4noc(=O)[nH]4)C[C@@H]2C)CC3)ccc1F [Example 50, 3-[(1S,2S)-1-[5-[(4S)-2,2-dimethyloxan-4-yl]-2-[(4S)-2-(4-fluoro-3-methylphenyl)-4-methyl-3-[3-(1-methylindazol-5-yl)-2-oxoimidazol-1-yl]-6,7-dihydro-4H-pyrazolo[4,3-c]pyridine-5-carbonyl]indol-1-yl]-2-methylcyclopropyl]-4H-1,2,4-oxadiazol-5-one]
EC50: 2.9 nM

Cc1cc(-n2nc3c(c2-n2ccn(-c4ccc5c(cnn5CC(F)(F)F)c4)c2=O)CN(C(=O)c2cc4cc(C5CCOCC5)ccc4n2[C@@]2(c4noc(=O)[nH]4)C[C@@H]2C)CC3)cc(C)c1F [Example 10, 3-[(1S,2S)-1-[2-[2-(4-fluoro-3,5-dimethylphenyl)-3-[2-oxo-3-[1-(2,2,2-trifluoroethyl)indazol-5-yl]imidazol-1-yl]-6,7-dihydro-4H-pyrazolo[4,3-c]pyridine-5-carbonyl]-5-(oxan-4-yl)indol-1-yl]-2-methylcyclopropyl]-4H-1,2,4-oxadiazol-5-one]
EC50: 2.8 nM

CCc1nccc(-c2ccc3c(c2)cc(C(=O)N2CCc4nn(-c5cc(C)c(F)c(C)c5)c(-n5ccn(-c6ccc(OC)c(F)c6)c5=O)c4C2)n3[C@@]2(c3noc(=O)[nH]3)C[C@@H]2C)c1C [Example 4]
EC50: 12 nM

Cc1cc(-n2nc3c(c2-n2ccn(-c4ccc5c(cnn5[C@@H]5CCOC5)c4)c2=O)[C@H](C)N(C(=O)c2cc4cc(C5CCOCC5)cc(F)c4n2[C@@]2(c4noc(=O)[nH]4)C[C@@H]2C)CC3)cc(C)c1F [compound 64]
EC50: 2 nM

COCCn1ncc2cc(-n3ccn(-c4c5c(nn4-c4cc(C)c(F)c(C)c4)CCN(C(=O)c4cc6cc(C7CCOC(C)(C)C7)ccc6n4[C@@]4(c6noc(=O)[nH]6)C[C@@H]4C)C5)c3=O)ccc21 (stereo partly drawn) [compound 76, 3-[(1S,2S)-1-[5-(2,2-dimethyloxan-4-yl)-2-[2-(4-fluoro-3,5-dimethylphenyl)-3-[3-[1-(2-methoxyethyl)indazol-5-yl]-2-oxoimidazol-1-yl]-6,7-dihydro-4H-pyrazolo[4,3-c]pyridine-5-carbonyl]indol-1-yl]-2-methylcyclopropyl]-4H-1,2,4-oxadiazol-5-one]
EC50: 2.4 nM

Cc1cc(-n2nc3c(c2-n2ccn(-c4ccc5c(cnn5C)c4)c2=O)CN(C(=O)c2cc4cc(C5CCOC6(CCCC6)C5)ccc4n2[C@@]2(c4noc(=O)[nH]4)C[C@@H]2C)CC3)cc(C)c1F (stereo partly drawn) [compound 75, 3-[(1S,2S)-1-[2-[2-(4-fluoro-3,5-dimethylphenyl)-3-[3-(1-methylindazol-5-yl)-2-oxoimidazol-1-yl]-6,7-dihydro-4H-pyrazolo[4,3-c]pyridine-5-carbonyl]-5-(6-oxaspiro[4.5]decan-9-yl)indol-1-yl]-2-methylcyclopropyl]-4H-1,2,4-oxadiazol-5-one]
EC50: 6.2 nM

COCCCN(C(C)=O)c1ccc(-n2ccn(-c3c4c(nn3-c3cc(C)c(F)c(C)c3)CCN(C(=O)c3cc5cc(C6CCOCC6)ccc5n3[C@@]3(c5noc(=O)[nH]5)C[C@@H]3C)C4)c2=O)cc1OC [Example 9, N-[4-[3-[2-(4-fluoro-3,5-dimethylphenyl)-5-[1-[(1S,2S)-2-methyl-1-(5-oxo-4H-1,2,4-oxadiazol-3-yl)cyclopropyl]-5-(oxan-4-yl)indole-2-carbonyl]-6,7-dihydro-4H-pyrazolo[4,3-c]pyridin-3-yl]-2-oxoimidazol-1-yl]-2-methoxyphenyl]-N-(3-methoxypropyl)acetamide]
EC50: 1.8 nM

Cc1cc(-n2nc3c(c2-n2ccn(-c4ccc5c(cnn5CCF)c4)c2=O)[C@H](C)N(C(=O)c2cc4cc(C5CCOCC5)ccc4n2[C@@]2(c4noc(=O)[nH]4)C[C@@H]2C)CC3)cc(C)c1F [Example 26, 3-[(1S,2S)-1-[2-[(4S)-2-(4-fluoro-3,5-dimethylphenyl)-3-[3-[1-(2-fluoroethyl)indazol-5-yl]-2-oxoimidazol-1-yl]-4-methyl-6,7-dihydro-4H-pyrazolo[4,3-c]pyridine-5-carbonyl]-5-(oxan-4-yl)indol-1-yl]-2-methylcyclopropyl]-4H-1,2,4-oxadiazol-5-one]
EC50: 0.77 nM

Cc1cc(-n2nc3c(c2-n2ccn(-c4ccc5c(cnn5CC5(C)COC5)c4F)c2=O)[C@H](C)N(C(=O)c2cc4cc(C5CCOCC5)ccc4n2[C@@]2(c4noc(=O)[nH]4)C[C@@H]2C)CC3)cc(C)c1F [Example 29, 3-[(1S,2S)-1-[2-[(4S)-2-(4-fluoro-3,5-dimethylphenyl)-3-[3-[4-fluoro-1-[(3-methyloxetan-3-yl)methyl]indazol-5-yl]-2-oxoimidazol-1-yl]-4-methyl-6,7-dihydro-4H-pyrazolo[4,3-c]pyridine-5-carbonyl]-5-(oxan-4-yl)indol-1-yl]-2-methylcyclopropyl]-4H-1,2,4-oxadiazol-5-one]
EC50: 1.4 nM

Cc1cc(-n2nc3c(c2-n2ccn(-c4ccc5c(C)nsc5c4)c2=O)[C@H](C)N(C(=O)c2cc4cc(C5CCOCC5)ccc4n2[C@@]2(c4noc(=O)[nH]4)C[C@@H]2C)CC3)cc(C)c1F [Example 18, 3-[(1S,2S)-1-[2-[(4S)-2-(4-fluoro-3,5-dimethylphenyl)-4-methyl-3-[3-(3-methyl-1,2-benzothiazol-6-yl)-2-oxoimidazol-1-yl]-6,7-dihydro-4H-pyrazolo[4,3-c]pyridine-5-carbonyl]-5-(oxan-4-yl)indol-1-yl]-2-methylcyclopropyl]-4H-1,2,4-oxadiazol-5-one]
EC50: 1.3 nM

Cc1cc(-n2nc3c(c2-n2ccn(-c4cc5cnn(C)c5cc4F)c2=O)[C@H](C)N(C(=O)c2cc4cc(C5CCOCC5)ccc4n2[C@@]2(c4noc(=O)[nH]4)C[C@@H]2C)CC3)cc(C)c1F [Example 27, 3-[(1S,2S)-1-[2-[(4S)-2-(4-fluoro-3,5-dimethylphenyl)-3-[3-(6-fluoro-1-methylindazol-5-yl)-2-oxoimidazol-1-yl]-4-methyl-6,7-dihydro-4H-pyrazolo[4,3-c]pyridine-5-carbonyl]-5-(oxan-4-yl)indol-1-yl]-2-methylcyclopropyl]-4H-1,2,4-oxadiazol-5-one]
EC50: 2.3 nM

Cc1cc(-n2nc3c(c2-n2ccn(-c4ccc5c(cnn5CC5(C)COC5)c4F)c2=O)[C@H](C)N(C(=O)c2cc4cc([C@H]5CCOC(C)(C)C5)ccc4n2[C@@]2(c4noc(=O)[nH]4)C[C@@H]2C)CC3)cc(C)c1F [Example 37, 3-[(1S,2S)-1-[5-[(4S)-2,2-dimethyloxan-4-yl]-2-[(4S)-2-(4-fluoro-3,5-dimethylphenyl)-3-[3-[4-fluoro-1-[(3-methyloxetan-3-yl)methyl]indazol-5-yl]-2-oxoimidazol-1-yl]-4-methyl-6,7-dihydro-4H-pyrazolo[4,3-c]pyridine-5-carbonyl]indol-1-yl]-2-methylcyclopropyl]-4H-1,2,4-oxadiazol-5-one]
EC50: 2.5 nM

Cc1cc(-n2ccn(-c3c4c(nn3-c3cc(C)c(F)c(C)c3)CCN(C(=O)c3cc5cc(C6CCOCC6)ccc5n3[C@@]3(c5noc(=O)[nH]5)C[C@@H]3C)[C@H]4C)c2=O)ccc1-c1cc(N(C)C)ncn1 [Example 25, 3-[(1S,2S)-1-[2-[(4S)-3-[3-[4-[6-(dimethylamino)pyrimidin-4-yl]-3-methylphenyl]-2-oxoimidazol-1-yl]-2-(4-fluoro-3,5-dimethylphenyl)-4-methyl-6,7-dihydro-4H-pyrazolo[4,3-c]pyridine-5-carbonyl]-5-(oxan-4-yl)indol-1-yl]-2-methylcyclopropyl]-4H-1,2,4-oxadiazol-5-one]
EC50: 4 nM

Cc1cc(-n2nc3c(c2-n2ccn(-c4ccc5c(cnn5CC(F)(F)F)c4F)c2=O)[C@H](C)N(C(=O)c2cc4cc(C5CCOCC5)ccc4n2[C@@]2(c4noc(=O)[nH]4)C[C@@H]2C)CC3)ccc1F [Example 46, 3-[(1S,2S)-1-[2-[(4S)-2-(4-fluoro-3-methylphenyl)-3-[3-[4-fluoro-1-(2,2,2-trifluoroethyl)indazol-5-yl]-2-oxoimidazol-1-yl]-4-methyl-6,7-dihydro-4H-pyrazolo[4,3-c]pyridine-5-carbonyl]-5-(oxan-4-yl)indol-1-yl]-2-methylcyclopropyl]-4H-1,2,4-oxadiazol-5-one]
EC50: 3.3 nM

Cc1cc(-n2nc3c(c2-n2ccn(-c4ccc5c(cnn5C)c4)c2=O)CN(C(=O)c2cc4cc(C5CCOCC5)ccc4n2[C@@]2(c4noc(=O)[nH]4)C[C@@H]2C)CC3)cc(C)c1F [compound 54, 3-[(1S,2S)-1-[2-[2-(4-fluoro-3,5-dimethylphenyl)-3-[3-(1-methylindazol-5-yl)-2-oxoimidazol-1-yl]-6,7-dihydro-4H-pyrazolo[4,3-c]pyridine-5-carbonyl]-5-(oxan-4-yl)indol-1-yl]-2-methylcyclopropyl]-4H-1,2,4-oxadiazol-5-one]
EC50: 3.9 nM

COCCn1ncc2cc(-n3ccn(-c4c5c(nn4-c4cc(C)c(F)c(C)c4)CCN(C(=O)c4cc6cc(N7CCOC(C)(C)C7)ccc6n4[C@@]4(c6noc(=O)[nH]6)C[C@@H]4C)C5)c3=O)ccc21 [Example 7, 3-[(1S,2S)-1-[5-(2,2-dimethylmorpholin-4-yl)-2-[2-(4-fluoro-3,5-dimethylphenyl)-3-[3-[1-(2-methoxyethyl)indazol-5-yl]-2-oxoimidazol-1-yl]-6,7-dihydro-4H-pyrazolo[4,3-c]pyridine-5-carbonyl]indol-1-yl]-2-methylcyclopropyl]-4H-1,2,4-oxadiazol-5-one]
EC50: 3.2 nM

Source: patent US10858356B2, “Pyrazolopyridine derivative having GLP-1 receptor agonist effect” (Chugai Seiyaku Kabushiki Kaisha, priority 2016, dated 2020)
